This passage reports EC50 and Emax results from patent publication US8003660B2, “Modulators of muscarinic receptors” (Vertex Pharmaceuticals Incorporated, priority 2006, dated 2011).

Holding throughout (assay type): cell-based
In experiment [1] the target is T1, M1 muscarinic receptor (Homo sapiens, UniProt P11229).
T1 construct: expressed in transfected cells; host or cells: CHO (M1-CHO)
T1 sequence (P11229 1-460): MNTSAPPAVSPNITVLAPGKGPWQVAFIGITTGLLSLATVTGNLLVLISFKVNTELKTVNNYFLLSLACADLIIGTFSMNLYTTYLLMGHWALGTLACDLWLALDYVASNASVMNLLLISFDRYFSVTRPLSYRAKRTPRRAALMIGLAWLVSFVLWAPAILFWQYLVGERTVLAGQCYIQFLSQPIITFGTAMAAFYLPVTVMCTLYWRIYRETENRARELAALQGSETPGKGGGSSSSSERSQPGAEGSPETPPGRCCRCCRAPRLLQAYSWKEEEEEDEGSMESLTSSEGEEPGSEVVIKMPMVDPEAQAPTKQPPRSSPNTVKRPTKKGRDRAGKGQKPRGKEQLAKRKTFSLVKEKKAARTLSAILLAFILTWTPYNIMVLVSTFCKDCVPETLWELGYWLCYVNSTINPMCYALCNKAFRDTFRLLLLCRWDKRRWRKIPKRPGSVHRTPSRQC
Put plainly: Functional mobilization of intracellular calcium (FLIPR) in CHO cells expressing M1. Particulars: for EC50: CHO cells expressing M1, FLIPR calcium; for Emax: CHO, 100% = maximum response obtained with the Carbachol control, read-out: M1 Efficacy. As to the method: (§1) Functional Mobilization of Intracellular Calcium to Determine Muscarinic Receptor Activity:
(§2) CHO cells expressing muscarinic receptors (M1 to M5) are grown as monolayers in tissue culture flasks at 37° C. in a humidified atmosphere containing 5% CO2 and passaged every 3-5 days. The growth media is Dulbecco's modified eagles medium (DMEM, Gibco Cat# 12430-054), containing 25 mM Hepes and supplemented with Fetal Bovine Serum (Hyclone, cat# SH30071.03), 0.1 mM of MEM non-essential amino acids (GIBCO, Cat# 11140-050), 1 mM MEM Sodium Pyruvate (GIBCO Cat# 11360-070) and 100 units/ml of Penicillin G and 100 μg/ml of Streptomycin (GIBCO Cat# 15140-122). The recombinant muscarinic receptor cell lines are grown under antibiotic pressure with media containing 25 μg/ml zeocin and 500 μg/ml G418 (M1-CHO), 4 μg/ml puromycin, 50 μg/ml zeocin and 2.5 μg/ml blasticidin (M2 and M4-CHO) or 50 μg/ml zeocin and 4 μg/ml puromycin (M3 and M5-CHO).
(§3) Cells are harvested at 80-90% confluence using Versene (GIBCO Cat# 15040-066), collected by centrifugation and seeded 18-24 hrs prior to running the calcium assay at a density of 5,000-10,000 cells/well in […], clear-bottomed 384-well plates (BD Biocoat, poly-D-lysine, Cat#356663). The day of the experiment, the cells are washed with a plate washer (Bioteck Instruments, ELX 405) using bath 1 buffer (140 mM NaCl, 4,5 mM KCl, 2 mM CaCl2, 1 mM MgCl2, 10 mM Hepes-Na, 10 mM Glucose, pH 7.4, with NaOH) containing 1 mM Probenecid. Next, the calcium dye Fluo-3 (25 μl/well of Fluo-3 AM at 4 μM, Molecular Probes F-1241, in Bath 1 buffer containing 1 mM Probenecid) is added to the 25 μl of Bath 1 remaining in each well after the plate wash and the dye is loaded at 37° C. in the tissue culture incubator for 60-90 min. The fluorescent dye is removed using the plate washer with Bath 1 containing 1 mM Probenecid, leaving 25 μl/well of this solution after the wash. Alternatively, cells can be loaded with the calcium indicator from Molecular Devices (Calcium 3 Assay Reagents, Cat #R7181) adding 5 μl of a 5× solution dye in Bath 1 containing 1 mM Probenecid (10 ml per dye flask cat#R7182 to generate a solution […]) to 20 μl of the same buffer. After loading for 60 min, the experiment can be run without having to remove the dye.
(§4) Compounds are prepared at a 2× fold concentration in a 96-well plate (round bottom, Costar Corning cat#3656), by reconstituting the pre-spotted compounds in bath 1 containing 1 mM probenecid. The final concentration DMSO is 0.5%, and the amount of DMSO is normalized across the assay plate. To determine an agonist action of the compounds on muscarinic receptors, the reconstituted compounds are added (25 μl compound/well) to the cell assay plate (containing 25 μl/well) using the multi-channel robotic system of the FLIPR 3 Instrument (Molecular Devices, Sunnyvale, Calif.). To determine a functional inhibitory action of the compounds on muscarinic receptors, the reconstituted compounds are added (25 μl compound/well) to the assay plate and pre-incubated for 15 min prior to adding 25 μl of Carbachol at 3× the EC80 for each muscarinic subtype. Alternatively, the compounds can be co-applied simultaneously with the agonist. In both assay modes, the fluorescence is recorded for 60 sec (excitation wavelength is […] and emission wavelength 540 nm) using the FLIPR 3 instrument.
(§5) The potency, efficacy and selectivity of the muscarinic compounds were evaluated by screening the compound activity across the whole family (M1 to M5 cells). Compounds were also screened for activity on other proteins such as other GPCRs and ion channels to determine selectivity on M4 receptors.
For orientation: Calcium assays in cells follow changes in intracellular calcium, usually with a dye or a luminescent sensor.

Experiment [2] concerns the target T2, M2 muscarinic receptor (Homo sapiens, UniProt P08172).
T2 construct: expressed in transfected cells; host or cells: CHO (M2-CHO)
T2 sequence (P08172 1-466): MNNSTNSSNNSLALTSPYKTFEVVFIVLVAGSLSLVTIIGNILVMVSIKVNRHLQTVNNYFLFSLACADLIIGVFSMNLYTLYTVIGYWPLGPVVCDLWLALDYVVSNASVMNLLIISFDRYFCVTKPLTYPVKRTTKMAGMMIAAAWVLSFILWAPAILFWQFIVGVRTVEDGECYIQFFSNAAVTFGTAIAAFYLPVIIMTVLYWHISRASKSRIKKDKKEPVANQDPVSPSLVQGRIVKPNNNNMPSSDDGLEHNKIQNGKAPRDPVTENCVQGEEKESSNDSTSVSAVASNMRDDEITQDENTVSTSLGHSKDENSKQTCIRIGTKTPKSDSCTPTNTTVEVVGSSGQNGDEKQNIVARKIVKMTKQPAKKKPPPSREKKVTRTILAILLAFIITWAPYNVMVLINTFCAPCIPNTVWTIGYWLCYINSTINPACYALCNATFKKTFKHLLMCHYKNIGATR
Description: Functional mobilization of intracellular calcium (FLIPR) in CHO cells expressing M2. Particulars: for EC50: CHO cells expressing M2, FLIPR calcium; for Emax: CHO, 100% = maximum response obtained with the Carbachol control, read-out: M2 Efficacy. As to the method:
as §1, §2, §3, §4, §5

For experiment [3], the target named is T3, M4 muscarinic receptor (Homo sapiens, UniProt P08173).
T3 construct: expressed in transfected cells; host or cells: CHO (M4-CHO)
T3 sequence (P08173 1-479): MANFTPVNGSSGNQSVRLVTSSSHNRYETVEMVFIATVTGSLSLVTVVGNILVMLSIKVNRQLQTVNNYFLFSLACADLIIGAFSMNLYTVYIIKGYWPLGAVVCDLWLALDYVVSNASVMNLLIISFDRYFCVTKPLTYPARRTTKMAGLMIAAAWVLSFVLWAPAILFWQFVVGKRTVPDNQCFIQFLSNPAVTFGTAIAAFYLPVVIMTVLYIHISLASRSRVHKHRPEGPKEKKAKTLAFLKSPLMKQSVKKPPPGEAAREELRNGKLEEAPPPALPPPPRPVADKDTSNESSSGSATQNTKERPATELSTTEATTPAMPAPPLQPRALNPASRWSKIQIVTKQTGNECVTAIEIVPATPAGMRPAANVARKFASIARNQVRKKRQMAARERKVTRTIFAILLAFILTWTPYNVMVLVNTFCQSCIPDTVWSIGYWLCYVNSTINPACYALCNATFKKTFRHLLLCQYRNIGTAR
Description: Functional mobilization of intracellular calcium (FLIPR) in CHO cells expressing M4. The note with it: for EC50: CHO cells expressing M4, FLIPR calcium; for Emax: CHO, 100% = maximum response obtained with the Carbachol control, read-out: M4 Efficacy. Here is the method: as §1, §2, §3, §4, §5

The target in experiment [4] is T4, M3 muscarinic receptor (Homo sapiens, UniProt P20309).
T4 construct: expressed in transfected cells; host or cells: CHO (M3-CHO)
Description: Functional mobilization of intracellular calcium (FLIPR) in CHO cells expressing M3. The note with it: for EC50: CHO cells expressing M3, FLIPR calcium; for Emax: CHO, 100% = maximum response obtained with the Carbachol control, read-out: M3 Efficacy. As to the method:
as §1, §2, §3, §4, §5

Each structure is given as a SMILES string. A value given as a limit tells only on which side of the number the result lay.

T4 sequence (P20309 whole entry): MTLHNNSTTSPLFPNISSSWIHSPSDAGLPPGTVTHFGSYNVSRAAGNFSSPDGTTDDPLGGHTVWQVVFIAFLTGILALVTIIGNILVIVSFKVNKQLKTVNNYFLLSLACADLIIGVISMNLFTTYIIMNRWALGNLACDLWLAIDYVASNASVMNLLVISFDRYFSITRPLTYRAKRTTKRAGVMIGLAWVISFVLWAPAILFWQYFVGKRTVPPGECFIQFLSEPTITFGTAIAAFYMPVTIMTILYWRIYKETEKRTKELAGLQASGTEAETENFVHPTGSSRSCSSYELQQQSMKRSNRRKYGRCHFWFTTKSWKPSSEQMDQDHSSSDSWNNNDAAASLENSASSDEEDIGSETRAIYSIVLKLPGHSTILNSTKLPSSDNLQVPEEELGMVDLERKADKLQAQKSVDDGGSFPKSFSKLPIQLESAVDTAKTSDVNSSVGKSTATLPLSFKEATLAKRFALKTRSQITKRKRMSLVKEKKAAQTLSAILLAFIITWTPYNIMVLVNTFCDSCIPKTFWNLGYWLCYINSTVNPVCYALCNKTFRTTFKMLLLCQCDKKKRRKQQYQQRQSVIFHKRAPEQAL

The term EC50 denotes the concentration that produces a half-maximal response. Take `CC(C)(C)CCN1CCC2(CC[C@@H](NC(=O)CC3CCCC3=O)c3ccc(F)cc32)CC1` (stereo partly shown) [compound 17]: the EC50 in experiment [1] is less than 2000 nM; in experiment [2] it was greater than 5000 nM; in experiment [3], less than 2000 nM; in experiment [4], greater than 5000 nM. The Emax was 25 to 100% in experiment [1], less than 25% in experiment [2], 25 to 100% in experiment [3] and less than 25% in experiment [4].

Regarding `CC(=O)CCC(=O)N[C@H]1CCC2(CCN(CCC(C)(C)C)CC2)c2ccccc21` [compound 18], the EC50 is less than 2000 nM in experiment [1], less than 2000 nM in experiment [2], less than 2000 nM in experiment [3] and greater than 5000 nM in experiment [4]. Also, the Emax in experiment [1] is 25 to 100%; in experiment [2] it was 25 to 100%; in experiment [3], 25 to 100%; in experiment [4], less than 25%.

Turning to `COC(C)(C)CCCC(C)CCN1CCC2(CC[C@H](NC(=O)N(C)C)c3ccccc32)CC1` (stereo partly shown) [compound 19], the EC50 in experiment [1], in experiment [2], in experiment [3] and in experiment [4] was greater than 5000 nM in each case. In addition, the Emax in experiment [1], in experiment [2], in experiment [3] and in experiment [4] was less than 25% each time.

In the case of `CC(=O)NCCC(=O)N[C@@H]1CCC2(CCN(CCC(C)(C)C)CC2)c2cc(F)ccc21` [compound 20], the EC50 in experiment [1] was less than 2000 nM; in experiment [2] it was less than 2000 nM; in experiment [3] it was less than 2000 nM; in experiment [4], greater than 5000 nM. Also, the Emax in experiment [1] is 25 to 100%; in experiment [2], 25 to 100%; in experiment [3] it was 25 to 100%; in experiment [4] it was less than 25%.

In the case of `CCOCCC(=O)N[C@@H]1CCC2(CCN(CCC(C)(C)C)CC2)c2ccccc21` [compound 21], the EC50 in experiment [1] was less than 2000 nM; in experiment [2], less than 2000 nM; in experiment [3], less than 2000 nM; in experiment [4], greater than 5000 nM. For the same molecule, the Emax in experiment [1] was 25 to 100%; in experiment [2] it was 25 to 100%; in experiment [3], 25 to 100%; in experiment [4], less than 25%.

In the case of `C[C@@H](C(=O)N[C@@H]1CCC2(CCN(CCC(C)(C)C)CC2)c2cc(F)ccc21)N1CCCC1=O` [compound 22], the EC50 is 2000 to 5000 nM in experiment [1], 2000 to 5000 nM in experiment [2], less than 2000 nM in experiment [3] and greater than 5000 nM in experiment [4]. Also, the Emax in experiment [1] is 25 to 100%; in experiment [2], less than 25%; in experiment [3], 25 to 100%; in experiment [4], less than 25%.

For the molecule `CC(C)C[C@@H](C(=O)N[C@H]1CCC2(CCN(CCC(C)(C)C)CC2)c2ccccc21)N1CCCC1=O` [compound 23], the EC50 in experiment [1] is 2000 to 5000 nM; in experiment [2], greater than 5000 nM; in experiment [3], less than 2000 nM; in experiment [4], greater than 5000 nM. The Emax in experiment [1] is less than 25%; in experiment [2], less than 25%; in experiment [3], 25 to 100%; in experiment [4], less than 25%.

In the case of `CCN(C(=O)C1CCC(OC)CC1)[C@H]1CCC2(CCN(CCC(C)(C)C)CC2)c2ccccc21` (stereo partly shown) [compound 24], the EC50 in experiment [1] was greater than 5000 nM; in experiment [2], less than 2000 nM; in experiment [3] it was less than 2000 nM; in experiment [4], greater than 5000 nM. In addition, the Emax in experiment [1] is less than 25%; in experiment [2], 25 to 100%; in experiment [3], 25 to 100%; in experiment [4], less than 25%.

In the case of `CN1CC(C(=O)N[C@@H]2CCC3(CCN(CCC(C)(C)C)CC3)c3ccccc32)CC1=O` (stereo partly shown) [compound 25], the EC50 in experiment [1] is greater than 5000 nM; in experiment [2], greater than 5000 nM; in experiment [3] it was less than 2000 nM; in experiment [4], greater than 5000 nM. Moreover, the Emax is less than 25% in experiment [1], less than 25% in experiment [2], 25 to 100% in experiment [3] and less than 25% in experiment [4].

Take `CCC(=O)C1NCCC1C(=O)N[C@H]1CCC2(CCN(CCC(C)(C)C)CC2)c2cc(F)ccc21` (stereo partly shown) [compound 26]: the EC50 in experiment [1] is less than 2000 nM; in experiment [2], greater than 5000 nM; in experiment [3], less than 2000 nM; in experiment [4] it was greater than 5000 nM. The Emax was 25 to 100% in experiment [1], less than 25% in experiment [2], 25 to 100% in experiment [3] and less than 25% in experiment [4].

`CC(C)(C)CCN1CCC2(CC[C@H](NC(=O)C3CCCO3)c3ccc(F)cc32)CC1` (stereo partly shown) [compound 27]: the EC50 in experiment [1] is less than 2000 nM; in experiment [2] it was less than 2000 nM; in experiment [3], less than 2000 nM; in experiment [4], greater than 5000 nM. The Emax is 25 to 100% in experiment [1], less than 25% in experiment [2], 25 to 100% in experiment [3] and less than 25% in experiment [4].
